# Experimental data: US10570436B2, “Method of analysing a sample including a microorganism of interest” (Spectromics Limited, priority 2014, dated 2020)
# Experiments:
# E. coli K12 = test: Minimum inhibitory concentration (MIC), bioscreen spectrophotometer; format: cell-based; details: Escherichia coli, 24 h incubation at 37° C., bioscreen spectrophotometer at 600 nm
# Excerpt: A range of different concentrations of antibiotic were used to establish the MIC employing a standardised method^17.
# [1] = tested on: Psuedomonas aeruginosa (Gram-negative); test: Susceptibility/resistance of the selected strain (Table 10); format: cell-based, Pseudomonas aeruginosa; details: Experimental Work 4
# S. epidermidis = test: UV-Vis spectroscopy with PC-DFA cluster plot, phenotypic shift after antibiotic exposure vs unexposed control; format: cell-based, Staphylococcus epidermidis; details: after both 10 minutes and 30 minutes
# Excerpt: (§1) A first stage of data analysis involved the use of principal component analysis (PCA). […] Its aim is to simplify spectral data from a high number of variables into a smaller number of indices (each called a “principal component” or “PC”), simultaneously retaining the original data variance by identifying data patterns. This is achieved as each PC becomes a representation of a group of data with a linear relationship, at the same time being completely uncorrelated to the subsequent PC which corresponds to a different data dimension. PCs are arranged in a descending order in terms of the degree of original data variance they represent with the first PC representing the greatest amount of original data variance. Addition of all the PCs thus yields the entire original data variance, with the first 5 PCs nearly always corresponding to almost 95% of that variance^11,20-22.
# (§2) In a second stage, discriminant function analysis (DFA), a supervised technique, was used. This chemometrics technique forms a model by taking into account the structure of data collected from the experiment, thus having a priori experimental knowledge. […]
# (§3) The plates were transferred to one of two BioTek Synergy HT microplate readers programmed for 30 min shaking with medium speed at 37° C. followed by a full scan (200-999 nm range) of all the samples with 2 nm resolution. […]
# [2] = tested on: Staphylococcus aureus (Gram-positive); test: Susceptibility/resistance of the selected strain (Table 10); format: cell-based; details: Experimental Work 4
# P. aeruginosa = test: UV-Vis spectroscopy with PC-DFA cluster plot, phenotypic shift after antibiotic exposure vs unexposed control; format: cell-based, Pseudomonas aeruginosa; details: after both 10 minutes and 30 minutes
# Excerpt: as §1, §2, §3
# [3] = tested on: Staphylococcus epidermidis (Gram-positive); test: Susceptibility/resistance of the selected strain (Table 10); format: cell-based; details: Experimental Work 4
# S. aureus = test: UV-Vis spectroscopy with PC-DFA cluster plot, phenotypic shift after antibiotic exposure vs unexposed control; format: cell-based, Staphylococcus aureus
# Excerpt: as §1
# In a second stage, discriminant function analysis (DFA), a supervised technique, was used. This chemometrics technique forms a model by taking into account the structure of data collected from the experiment, thus having a priori experimental knowledge. Using this knowledge it then discriminates data into groups (bacterial classes of treatment) based on the PCs obtained from the PCA in an attempt to reduce intra-group variance and widen inter-group variance^23.
# For each strain, 3 mL of nutrient broth was inoculated with the overnight grown cells to a final OD600nm=0.1, followed by dispensing the samples as 200 μL aliquots in a sterile Corning 96 well plate (5 biological replicates per strain for each condition). All plates were sealed using sterile Breath-Easy sealing membranes to reduce sample evaporation. The plates were incubated at 37° C. with 200 rpm shaking for 150 min.
# The plates were transferred to one of two BioTek Synergy HT microplate readers programmed for 30 min shaking with medium speed at 37° C. followed by a full scan (200-999 nm range) of all the samples with 2 nm resolution.
# In general, unless otherwise stated, the material and methods for Experimental Work 4 were the same as for Experimental Work 3, except that a single Thermo Biomate 5 UV-Vis spectrometer across spectral range of 300-800 nm was used for data collection in Experimental Work 4.
SMILES,MIC (E. coli K12) [µg/mL],Sensitive / Resistant to antibiotic [1],shift in the cluster plot (PC-DFA) (S. epidermidis),Sensitive / Resistant to antibiotic [2],shift in the cluster plot (PC-DFA) (P. aeruginosa),Sensitive / Resistant to antibiotic [3],shift in the cluster plot (PC-DFA) (S. aureus; after 30 minutes exposure) [units],shift in the cluster plot (PC-DFA) (S. aureus; at 10 minutes exposure)
NCC[C@H](O)C(=O)N[C@@H]1C[C@H](N)[C@@H](O[C@H]2O[C@H](CN)[C@@H](O)[C@H](O)[C@H]2O)[C@H](O)[C@H]1O[C@H]1O[C@H](CO)[C@@H](O)[C@H](N)[C@H]1O [Amikacin],10,–,–,–,–,–,–,–
CC1(C)S[C@@H]2[C@H](NC(=O)[C@H](N)c3ccccc3)C(=O)N2[C@H]1C(=O)O [Ampicillin],10,Resistant,minimal,Sensitive,minimal,Resistant,~1.5,minimal
O=C(O)c1cn(C2CC2)c2cc(N3CCNCC3)c(F)cc2c1=O [Ciprofloxacin],–,Sensitive,–,Sensitive,–,Sensitive,–,–
COc1cc(Cc2cnc(N)nc2N)cc(OC)c1OC [Trimethoprim],300,Resistant,~3 units,Resistant,~3 units,Resistant,~4,minimal
